Key:
[1] = molecular target: T1, MANEA-Δ97 (human endo-α-1,2-mannosidase catalytic domain, GH99) (Homo sapiens, UniProt Q5SRI9); assay: isothermal titration calorimetry; type: binding
T1 sequence (Q5SRI9 98-462): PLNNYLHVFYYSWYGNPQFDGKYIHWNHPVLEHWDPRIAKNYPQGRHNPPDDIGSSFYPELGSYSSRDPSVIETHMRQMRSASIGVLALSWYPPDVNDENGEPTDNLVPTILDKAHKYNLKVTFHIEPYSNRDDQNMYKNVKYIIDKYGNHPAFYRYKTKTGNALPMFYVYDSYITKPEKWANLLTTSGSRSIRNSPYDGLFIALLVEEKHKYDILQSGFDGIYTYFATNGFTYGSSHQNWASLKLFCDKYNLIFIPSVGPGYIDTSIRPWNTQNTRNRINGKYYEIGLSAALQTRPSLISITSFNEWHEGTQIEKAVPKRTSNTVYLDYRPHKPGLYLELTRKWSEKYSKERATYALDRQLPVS

[2] = molecular target: T1, MANEA-Δ97 (human endo-α-1,2-mannosidase catalytic domain, GH99); assay: X-ray crystal structure; type: binding; details: ternary complex with GlcIFG; +1/+2 subsites
purified protein = substrate: CO[C@H]1O[C@H](CO)[C@@H](O)[C@H](O)[C@@H]1O[C@H]1O[C@H](CO)[C@@H](O)[C@H](O)[C@@H]1O[C@H]1O[C@H](CO)[C@@H](O)[C@H](O[C@H]2O[C@H](CO)[C@@H](O)[C@H](O)[C@H]2O)[C@@H]1O; assay: purified protein; details: α-mannosidase-coupled release of mannose

**Q.** How did the Kd [1] turn out when `OC[C@H]1NC[C@@H](O)[C@@H](O[C@H]2O[C@H](CO)[C@@H](O)[C@H](O)[C@H]2O)[C@@H]1O` [GlcDMJ] was run?
**A.** Its Kd is 1.02 µM.

**Q.** `OC[C@H]1O[C@H](O[C@@H]2C(O)O[C@H](CO)[C@@H](O)[C@@H]2O)[C@@H](O)[C@@H](O)[C@@H]1O` (stereo partly drawn) [α-1,2-mannobiose] was tested. Which X-ray crystal structure [2] did it give?
**A.** Its X-ray crystal structure is “a ternary complex with GlcIFG and α-1,2-mannobiose”.

B1: MANEA-Δ97 (human endo-α-1,2-mannosidase catalytic domain, GH99) (Homo sapiens) (protein)
chain: T1 sequence (Q5SRI9 98-462)
**Q.** With B1 as the molecule, how does the Km (purified protein) read?
**A.** Its Km is 426 ± 33 µM.

**Q.** And the kcat (purified protein)?
**A.** Its kcat is 0.462 ± 0.0167 s⁻¹.
